What is called CC50 is the concentration giving 50% cytotoxicity. A low value points to harm at low concentration. The EC50 is the concentration needed to bring the measured effect to its halfway point. A higher EC50 goes with a less potent agent.

Some results are limits rather than exact numbers.

Series [1] can be described thus: Cell Titer-fluor cell activity assay in HCV-1b replicon cells (CC50). The series is classed as cell-based. A digest of the protocol: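 Con1 genotype 1b replicon cells (E1202G, T1280I, K1846T adaptive mutations), 8000 cells/well, exposed to 6-point 5-fold dilutions from 100, 10 or 1 nM top concentration in 0.5% DMSO, duplicate wells, 3 days at 37 °C. Viability read by Cell Titer-fluor (Ex 405/Em 515 nm) after 30 min; CC50 from nonlinear fit of inhibition %.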

Series [2] relates to HCV genotype 1a (HCV-1a) replicon cells. In words: HCV genotype 1a replicon luciferase assay (EC50). The series is classed as cell-based, hepatitis C virus genotype 1a (H77 clone). The note with it: Hepatitis C virus, 72 h, 3 days, luciferase (Bright-Glo). A digest of the protocol:
(§1)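 Compounds were dispensed as 5-fold, 6-point series (highest 100, 10 or 1 nM; 0.5% DMSO) in duplicate. Replicon cells expressing luciferase (H77-derived for 1a, Con1-derived for 1b) were added at 8000 per well and grown 3 days. Luciferase activity was then measured and EC50 fitted.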

Series [3] has as its system HCV genotype 1b (HCV-1b) replicon cells. In words: HCV genotype 1b replicon luciferase assay (EC50). The series is classed as cell-based, hepatitis C virus genotype 1b (Con1 clone). The note with it: Hepatitis C virus, 72 h, 3 days, luciferase (Bright-Glo). A digest of the protocol:
as §1

Regarding `COC(=O)N[C@H](C(=O)N1CCC[C@H]1c1ncc(-c2ccc(-c3ccc(-c4cnc([C@@H]5C6CCC(C6)[C@H]5C(=O)NCc5cccnc5C(C)C)[nH]4)cc3)cc2)[nH]1)C(C)C` (stereo partly drawn) [AA_215_B], the CC50 at 3 days in series [1] was more than 1 nM. The figures for the EC50 in series [2] and in series [3] were 10 to 100 nM and 0.001 to 0.1 nM, respectively.
For `COC(=O)N[C@H](C(=O)N1CCC[C@H]1c1ncc(-c2ccc(-c3ccc(-c4cnc([C@H]5C6CCC(C6)[C@@H]5C(=O)NCc5cccnc5C(F)(F)F)[nH]4)cc3)cc2)[nH]1)C(C)C` (stereo partly drawn) [AA_216_A], the CC50 at 3 days in series [1] is more than 1 nM. Besides, the EC50 fell in the range of 10 to 100 nM in series [2] and 0.001 to 0.1 nM in series [3].
The like results for `COC(=O)N[C@H](C(=O)N1CCC[C@H]1c1ncc(-c2ccc(-c3ccc(-c4cnc([C@@H]5C6CCC(C6)[C@H]5C(=O)NCc5cccnc5C(F)(F)F)[nH]4)cc3)cc2)[nH]1)C(C)C` (stereo partly drawn) [AA_216_B] were, in that order, more than 1 nM, 10 to 100 nM and 0.001 to 0.1 nM.
For `COC(=O)N[C@H](C(=O)N1CCC[C@H]1c1ncc(-c2ccc(-c3ccc(-c4cnc([C@H]5C6CCC(C6)[C@@H]5C(=O)NCc5cccnc5C)[nH]4)cc3)cc2)[nH]1)C(C)C` (stereo partly drawn) [AA_217], in that order: more than 1 nM, 10 to 100 nM and 1 to 10 nM.
The like results for `COC(=O)N[C@H](C(=O)N1CCC[C@H]1c1ncc(-c2ccc(-c3ccc(-c4cnc([C@H]5C6CCC(C6)[C@@H]5C(=O)NCC5CNc6ccccc6C5)[nH]4)cc3)cc2)[nH]1)C(C)C` (stereo partly drawn) [AA_218] were, in that order, more than 1 nM, 10 to 100 nM and 0.101 to 1 nM.
Regarding `COC(=O)N[C@H](C(=O)N1CCC[C@H]1c1ncc(-c2ccc(-c3ccc(-c4cnc(C5C6CCC(C6)[C@H]5C(=O)NCc5nccs5)[nH]4)cc3)cc2)[nH]1)[C@@H](C)OC` (stereo partly drawn) [AA_219_A], in series [1], the CC50 at 3 days was more than 1 nM. For the same molecule, the EC50 lay in the range of 1 to 10 nM in series [2] and 0.001 to 0.1 nM in series [3].
In series [1], `COC(=O)N[C@H](C(=O)N1CCC[C@H]1c1ncc(-c2ccc(-c3ccc(-c4cnc(C5C6CCC(C6)[C@H]5C(=O)NCCO)[nH]4)cc3)cc2)[nH]1)[C@@H](C)OC` (stereo partly drawn) [AA_220_A] had a CC50 at 3 days of more than 1 nM. Moreover, the EC50 fell in the range of 10 to 100 nM in series [2] and 0.101 to 1 nM in series [3].
For `COC(=O)N[C@H](C(=O)N1CCC[C@H]1c1ncc(-c2ccc(-c3ccc(-c4cnc(C5C6CCC(C6)[C@@H]5C(=O)NCCO)[nH]4)cc3)cc2)[nH]1)[C@@H](C)OC` (stereo partly drawn) [AA_220_B], in that order: more than 1 nM, 10 to 100 nM and 1 to 10 nM.
With `COC(=O)N[C@H](C(=O)N1CCC[C@H]1c1ncc(-c2ccc(-c3ccc(-c4cnc(C5C6CCC(C6)[C@H]5C(=O)NCc5ccccn5)[nH]4)cc3)cc2)[nH]1)[C@@H](C)OC` (stereo partly drawn) [AA_221_A], in series [1], the CC50 at 3 days is more than 1 nM. The EC50 was 1 to 10 nM in series [2] and 0.001 to 0.1 nM in series [3].
The like results for `COC(=O)N[C@H](C(=O)N1CCC[C@H]1c1ncc(-c2ccc(-c3ccc(-c4cnc(C5C6CCC(C6)[C@@H]5C(=O)NCc5ccco5)[nH]4)cc3)cc2)[nH]1)[C@@H](C)OC` (stereo partly drawn) [AA_222_A] were, in that order, more than 1 nM, 10 to 100 nM and 0.001 to 0.1 nM.
For `COC(=O)N[C@H](C(=O)N1CCC[C@H]1c1ncc(-c2ccc(-c3ccc(-c4cnc(C5C6CCC(C6)[C@H]5C(=O)NCc5ccc(OC)nc5)[nH]4)cc3)cc2)[nH]1)[C@@H](C)OC` (stereo partly drawn) [AA_223_A], in that order: more than 1 nM, 10 to 100 nM and 0.101 to 1 nM.
The like results for `COC(=O)N[C@H](C(=O)N1CCC[C@H]1c1ncc(-c2ccc(-c3ccc(-c4cnc(C5C6CCC(C6)[C@@H]5C(=O)NCc5ccc(OC)nc5)[nH]4)cc3)cc2)[nH]1)[C@@H](C)OC` (stereo partly drawn) [AA_223_B] were, in that order, more than 1 nM, 10 to 100 nM and 0.101 to 1 nM.
`COC(=O)N[C@H](C(=O)N1CCC[C@H]1c1ncc(-c2ccc(-c3ccc(-c4cnc([C@H]5C6CCC(C6)[C@@H]5C(=O)NCc5cccnc5F)[nH]4)cc3)cc2)[nH]1)C(C)C` (stereo partly drawn) [AA_224_A] gave a CC50 at 3 days in series [1] of more than 1 nM. Moreover, the EC50 in series [2] lay within 1 to 10 nM; in series [3], 0.001 to 0.1 nM.
The like results for `COC(=O)N[C@H](C(=O)N1CCC[C@H]1c1ncc(-c2ccc(-c3ccc(-c4cnc([C@@H]5C6CCC(C6)[C@H]5C(=O)NCc5cccnc5F)[nH]4)cc3)cc2)[nH]1)C(C)C` (stereo partly drawn) [AA_224_B] were, in that order, more than 1 nM, 1 to 10 nM and 0.001 to 0.1 nM.
For `COC(=O)N[C@H](C(=O)N1CCC[C@H]1c1ncc(-c2ccc(-c3ccc(-c4cnc(C5[C@H]6CC[C@H](C6)[C@H]5C(=O)NCc5cccnc5F)[nH]4)cc3)cc2)[nH]1)C(C)C` (stereo partly drawn) [AA_224_ENDOA2], in that order: more than 1 nM, 0.101 to 1 nM and 0.001 to 0.1 nM.
`COC(=O)N[C@H](C(=O)N1CCC[C@H]1c1ncc(-c2ccc(-c3ccc(-c4cnc(C5C6CCC(C6)[C@@H]5C(=O)NCc5cccc(N)c5)[nH]4)cc3)cc2)[nH]1)[C@@H](C)OC` (stereo partly drawn) [AA_226] showed a CC50 at 3 days in series [1] of more than 1 nM. The EC50 lay in the range of 10 to 100 nM in series [2] and 0.001 to 0.1 nM in series [3].
Molecule `COC(=O)N[C@H](C(=O)N1CCC[C@H]1c1ncc(-c2ccc(-c3ccc(-c4cnc([C@H]5C6CCC(C6)[C@@H]5C(=O)NCc5ccc(N)cc5)[nH]4)cc3)cc2)[nH]1)[C@@H](C)OC` (stereo partly drawn) [AA_227] displayed a CC50 at 3 days in series [1] of more than 1 nM. The EC50 in series [2] fell in the range of 10 to 100 nM; in series [3], 0.101 to 1 nM.
The like results for `COC(=O)N[C@H](C(=O)N1CCC[C@H]1c1ncc(-c2ccc(-c3ccc(-c4cnc([C@H]5C6CCC(C6)[C@@H]5C(=O)NCc5cccnc5O)[nH]4)cc3)cc2)[nH]1)C(C)C` (stereo partly drawn) [AA_228] were, in that order, more than 1 nM, 1 to 10 nM and 0.001 to 0.1 nM.
`COC(=O)N[C@H](C(=O)N1C[C@@H](OC)C[C@H]1c1ncc(-c2ccc(-c3ccc(-c4cnc([C@@H]5C6CCC(C6)[C@H]5C(=O)NCc5cccnc5)[nH]4)cc3)cc2)[nH]1)C(C)C` (stereo partly drawn) [AA_230_A] gave a cytotoxic concentration (CC50) at 3 days in series [1] of more than 1 nM. In addition, the EC50 was 0.101 to 1 nM in series [2] and 0.001 to 0.1 nM in series [3].
The like results for `COC(=O)N[C@H](C(=O)N1C[C@@H](OC)C[C@H]1c1ncc(-c2ccc(-c3ccc(-c4cnc([C@H]5C6CCC(C6)[C@@H]5C(=O)NCc5cccnc5)[nH]4)cc3)cc2)[nH]1)C(C)C` (stereo partly drawn) [AA_230_B] were, in that order, more than 1 nM, 1 to 10 nM and 0.001 to 0.1 nM.
With `COC(=O)N[C@H](C(=O)N1C[C@@H](OC)C[C@H]1c1ncc(-c2ccc(-c3ccc(-c4cnc([C@@H]5C6CCC(C6)[C@H]5C(=O)NCc5cccnc5)[nH]4)cc3)cc2)[nH]1)[C@@H](C)OC` (stereo partly drawn) [AA_231_A], the CC50 at 3 days in series [1] was more than 1 nM. For the same molecule, the EC50 in series [2] was in the range of 0.101 to 1 nM; in series [3] it was 0.001 to 0.1 nM.
`COC(=O)N[C@H](C(=O)N1C[C@@H](OC)C[C@H]1c1ncc(-c2ccc(-c3ccc(-c4cnc([C@H]5C6CCC(C6)[C@@H]5C(=O)NCc5cccnc5)[nH]4)cc3)cc2)[nH]1)[C@@H](C)OC` (stereo partly drawn) [AA_231_B] came in with a CC50 at 3 days in series [1] of more than 1 nM. For the same molecule, the EC50 in series [2] lay in the range of 1 to 10 nM; in series [3], 0.001 to 0.1 nM.
For `COC(=O)N[C@H](C(=O)N1CCC[C@H]1c1ncc(-c2ccc(-c3ccc(-c4cnc([C@H]5C6CCC(C6)[C@@H]5C(=O)NCc5ccc(C(F)(F)F)nc5)[nH]4)cc3)cc2)[nH]1)C(C)C` (stereo partly drawn) [AA_232_A], in that order: more than 1 nM, 1 to 10 nM and 0.001 to 0.1 nM.
For `COC(=O)N[C@H](C(=O)N1CCC[C@H]1c1ncc(-c2ccc(-c3ccc(-c4cnc([C@@H]5C6CCC(C6)[C@H]5C(=O)NCc5ccc(C(F)(F)F)nc5)[nH]4)cc3)cc2)[nH]1)C(C)C` (stereo partly drawn) [AA_232_B], in that order: more than 1 nM, 1 to 10 nM and 0.001 to 0.1 nM.
The like results for `COC(=O)N[C@H](C(=O)N1CCC[C@H]1c1ncc(-c2ccc(-c3ccc(-c4cnc([C@@H]5C6CCC(C6)[C@H]5C(=O)NC(c5cccnc5)C(C)C)[nH]4)cc3)cc2)[nH]1)C(C)C` (stereo partly drawn) [AA_233_B] were, in that order, more than 1 nM, 1 to 10 nM and 0.001 to 0.1 nM.
Consider `COC(=O)N[C@H](C(=O)N1CCC[C@H]1c1ncc(-c2ccc(-c3ccc(-c4cnc([C@@H]5[C@H]6CC[C@H](C6)[C@H]5C(=O)N[C@H](c5cccnc5)C(C)C)[nH]4)cc3)cc2)[nH]1)C(C)C` [AA_233_ENDOA2_A], for which, in series [1], the CC50 at 3 days was more than 1 nM. In addition, the figures for the EC50 in series [2] and in series [3] were 0.101 to 1 nM and 0.001 to 0.1 nM, respectively.
Molecule `COC(=O)N[C@H](C(=O)N1CCC[C@H]1c1ncc(-c2ccc(-c3ccc(-c4cnc(C5[C@H]6CC[C@H](C6)[C@H]5C(=O)N[C@@H](c5cccnc5)C(C)C)[nH]4)cc3)cc2)[nH]1)C(C)C` (stereo partly drawn) [AA_233_ENDOA2_B] yielded a CC50 at 3 days in series [1] of more than 1 nM. For the same molecule, the EC50 in series [2] lay in the range of 10 to 100 nM; in series [3] it was 0.001 to 0.1 nM.
For `COC(=O)N[C@H](C(=O)N1CCC[C@H]1c1ncc(-c2ccc(-c3ccc(-c4cnc([C@H]5C6CCC(C6)[C@@H]5C(=O)NCc5cccnc5C5CC5)[nH]4)cc3)cc2)[nH]1)C(C)C` (stereo partly drawn) [AA_234_A], in that order: more than 1 nM, 1 to 10 nM and 0.001 to 0.1 nM.
For `COC(=O)N[C@H](C(=O)N1CCC[C@H]1c1ncc(-c2ccc(-c3ccc(-c4cnc([C@@H]5C6CCC(C6)[C@H]5C(=O)NCc5cccnc5C5CC5)[nH]4)cc3)cc2)[nH]1)C(C)C` (stereo partly drawn) [AA_234_B], in that order: more than 1 nM, 10 to 100 nM and 0.001 to 0.1 nM.
